Experimental data as given in EP4596537A1, “NOVEL FLUORENE DERIVATIVE COMPOUND AND USE THEREOF” (JD Bioscience Inc., priority 2022, dated 2024).

How the values were obtained:
[1] = tested on: CT26 colorectal cancer cell line; test: Anticancer efficacy in CT26 colorectal cancer tumor model; type: in vivo, nude mice; settings: 1.0 mg/kg
Experimental: A colorectal cancer model was established by subcutaneously transplanting CT26 colorectal cancer cell line into nude mice. The colorectal cancer model was divided into two groups: vehicle administration group and Compound 1 administration group. […] Similar to Experimental Example 13, tumor size was calculated before drug administration and on days 3, 7, 10, 14, 18, 22, and 24 after drug administration, and body weight was measured before drug administration and on days 7, 14 and 22 after drug administration, which are shown in FIG. 22.
Additionally, tumors were extracted from the colorectal cancer model, fixed with 4% PFA solution, and subjected to TUNEL assay to determine the degree of apoptosis induction, and the results are shown in FIG. 22. As shown in the middle of FIG. 22, 28% apoptosis was induced in the vehicle administration group, and 72% apoptosis was induced in the 1.0 mg/kg compound 1 administration group, and statistical significance between these values was also verified (*p<0.01 versus the vehicle administration group).

bladder cancer cells = test: Growth inhibition (Cell Counting Kit-8), bladder cancer cells; type: cell-based; settings: 24 hours, 0.5% FBS
Experimental: In order to verify the growth inhibitory effect of Compound 1 on various normal and cancer cell lines, 25 types of cell lines listed in Table 7 below were tested. In detail, each cell was seeded at a density of 2 × 10^4 cells/well in a 96-well plate and cultured for 24 hours, and then the medium was replaced with a medium comprising 0.5% (for cancer cells) or 10% (for normal cells) FBS, and Compound 1 was treated at various concentrations. 24 hours later, 10 µL of Cell Counting Kit-8 (Dojindo Molecular Technologies) was added, and 1 hour later, absorbance at 480 nm was measured using a microplate reader (TECAN SPARK), and the results are shown in FIGS. 15 to 21.

H9C2 cells = test: Myocardial infarction cell model (hypoxia-reoxygenation); type: cell-based, rat; settings: 1 µM
Experimental: H9C2 cells, which are a rat […] cell line, were seeded at a density of 3 × 10^3 cells/well in a 96-well plate and cultured for 24 hours. The next day, the medium was replaced with FBS-free DMEM and cultured for an additional 24 hours. After replacing the medium with FBS-free DMEM again, 1 µM of Compound 1 was treated and cultured in a hypoxia chamber (1% oxygen, 5% CO2) for 2 hours (hypoxia). After replacing the medium with DMEM with 10% FBS, 1 µM of Compound 1 was treated and cultured in a CO2 incubator for 1 hour (reoxygenation). Apoptosis, mitochondrial superoxide levels, and intracellular calcium levels were measured, and the results are shown in FIGS. 4 and 5, respectively.

SMILES: CC(C(=O)NNc1ccc(F)cc1)n1cc(-c2cc(F)cc3c2-c2ccccc2C3(O)C(F)(F)F)cn1 (stereo not shown) [Example 1, 2-(4-(2-fluoro-9-hydroxy-9-(trifluoromethyl)-9H-fluoren-4-yl)-1H-pyrazol-1-yl)-N'-(4-fluorophenyl)propanehydrazide]
- decrease in tumor growth (tumor volume) compared to vehicle ([1]; day 24): 55%
- change in the body weight ([1]; days 7, 14, 22): Neither the vehicle administration group nor the compound 1 administration group showed any change in the body weight
- apoptosis induced in tumor (TUNEL assay) ([1]; vehicle group 28%): 72%
- concentration at which viability began to rapidly decrease to 70% or less (bladder cancer cells): less than 1.2 µM
- intracellular calcium (Rhod2 staining) (H9C2 cells; hypoxia-reoxygenation): remarkably reduced
- mitochondrial superoxide (MitoSOX staining) (H9C2 cells; hypoxia-reoxygenation): remarkably reduced
- apoptosis (TUNEL staining) (H9C2 cells; hypoxia-reoxygenation (H/R)): markedly reduced
